For one data set, the system named is human erythrocytes. Nature of the data set: Human red blood cell hemolysis. In kind it is cell-based. To be noted: 100 µM. On the procedure: With a few minor modifications, red blood cell hemolysis was carried out as previously described ([21]). On a 96-well microtiter plate, 100, 10, 1, and 0 µM NCRs, NCR094 and NCR992 were placed in each well, and […] of 1× PBS was carried out across the plate. Each well received an equivalent volume of 1% human erythrocytes that had been re-suspended in PBS after being washed once with PBS (5 minutes by centrifugation at 3,000 × g to prevent non-specific red blood cell lysis). The plate was then incubated at 37°C for 24 hrs.
As negative and positive controls for hemolysis, respectively, PBS alone and 1% sodium hypochlorite alone were utilized. At a wavelength of 405 nm, hemoglobin release was measured, and the hemolytic capability was expressed as a percentage of the sodium hypochlorite control (100%). The normalization equation normalization = NCR average – negative control average was used to compute the hemolysis percentage. Hemolysis percentage = normalization of NCRs ÷ average of positive control × 100. The hemolysis of 20% and above was considered as toxic to human red blood cells as reported previously ([22]). The mean values and standard deviation (SD) for each assay were carried out in triplicate and repeated three times.
Fig 6 The hemolysis % of the NCRs (NCR094 and NCR992) toward human red blood cells. One percent human red blood cells were treated with 100 µM of the NCRs. (A) NCR094 WT, NCR094.1, NCR094.2, and NCR094.3. (B) NCR992 WT, NCR992.1, NCR992.2, and NCR992 for 16 hrs without shaking. One hundred […] of supernatants was transferred into a new 96-well plate, and the absorbance was measured using a plate reader at 405 nm wavelength. Polymyxin B treatment was […] control. The results were represented as average of the % hemolysis and standard deviations from three independent experiments.
Figure S.1. Dose-dependent hemolysis assay for the NCR collection used in this study.
1% Human red blood cells were treated with 10-fold concentration (100, 10, 1, 0 μM) of NCRs A) (NCR094.1, B)
NCR992 WT) C) NCR992.1, D) NCR992.2, and E) NCR992.1for 18 hrs without shaking. […] of supernatants
were transferred into new 96-well plate and the absorbance was measured using a plate reader at 405 nm wavelength.
The results were represented as average of the % hemolysis and error bars were ± SD values from three independent
(also on this page, place not known: 10100 % of Toxicity 10100 80% of Toxicity 10100 % of Toxicity 10100 % of Toxicity 10100 S- % of Toxicity A)

Data set [1] concerns K. pneumoniae ATCC700603. In kind it is cell-based, Klebsiella pneumoniae. On the procedure: (§1) Bacterial strains used in the experiment were MRSA ATCC29213 and K. pneumoniae ATCC700603. Three NCRs, NCR094 (GenBank# KEH42094.1), NCR992 (GenBank# KEH8992.1), and NCR888 (GenBank# KEH37888.1), and designed derivatives were supplied from GenScript (United States). MRSA and K. pneumoniae were streaked for colonies on blood agar plates and incubated at 37°C for 18–24 hrs. MRSA and K. pneumoniae’s colonies were cultured in cation-adjusted Mueller–Hinton broth (MHB) media and incubated at 37°C for 18–24 hrs. For the in vitro killing assay and the ex vivo human killing assay, MRSA and K. pneumoniae were cultured on an MHB agar plate for 18 hrs at 37°C.
(§2) A broth microdilution assay in cation-adjusted MHB (MilliporeSigma, United States) was used to determine the minimum inhibitory concentrations (MICs) and the mimium bactericidal concentration (MBCs) of our NCR collection’s NCR094, NCR888, and NCR992. After a final bacterial inoculum of 5 × 10^5 CFU/mL was set and incubated for an overnight period at 37°C, the MIC of the NCRs that prevented MRSA or K. pneumoniae from growing visibly was measured. The MBCs was measured by subculturing the broths used in MIC determination into fresh NCR-free agar plates. The MICs of the NCRs were measured after the NCRs were added to the MRSA or K. pneumoniae cultures and dissolved in sterile distilled water.
The bacterial cultures of MRSA and K. pneumoniae were treated with different concentrations of the synthetic NCRs (MRSA: 25, 12.5, 6.25, 3.125, and 0 µM; K. pneumoniae: 50, 25, 12.5, 6.25, 3.125, and 0 µM). […] Thus, NCR888 in the wild type and the different variants were not included in the downstream assays.

For another data set, the system named is MRSA ATCC29213. As to the kind of experiment: Broth microdilution MIC/MBC. It is filed as cell-based, Staphylococcus aureus. To be noted: tested 25, 12.5, 6.25, 3.125 µM; post-18 hrs of treatment. Here is the method: as §1
as §2, with “water. […]” for “water.”

For data set [2], the system named is K. pneumoniae ATCC700603. In kind it is cell-based, Klebsiella pneumoniae. To be noted: human whole blood, 12.5 µM, 18 hrs 37°C; mean of three independent experiments. On the procedure:
The whole killing assay was performed as previously described ([19]). Briefly, freshly drawn peripheral venous whole blood was collected on a heparin tube from healthy adult volunteers. To do this, unchallenged blood with and without NCRs at the MIC (blood from the same individuals) was used. Whole blood was then challenged with MRSA or K. pneumoniae ex vivo and incubated for an overnight period at 37°C. Tenfold serial dilution was plated on MH agar media post-18 hrs treatment ([19]). Killing% was calculated as follows: killing% = CFUs for no treatment − CFUs for NCR treatment ÷ […] × 100. Three independent experiments were performed.
The killing effect of NCRs on MRSA and K. pneumoniae was investigated using an ex vivo whole blood killing assay as a preliminary screening method to discover peptides with potential immune-boosting activity. […] The bactericidal ability (killing%) of human whole blood was monitored by counting the CFUs post-18 hrs, and the killing% was calculated.
Fig 2 Whole blood killing assay of NCR094 in the wild type and the derivatives, ex vivo antimicrobial assay. […] CFUs were calculated to estimate the killing percentage. […]
Fig 4 Whole blood killing assay of NCR992 in the wild type and the derivatives, the ex vivo antimicrobial assay. […] CFUs were calculated to estimate the killing percentage. […]

In brackets after ≈: the same amount, converted by molar mass. Where a SMILES comes first, the peptide text is derived from it. Where no end group is shown, it is not given here.

Take `CC(C)C[C@H](NC(=O)[C@@H](N)Cc1ccc(O)cc1)C(=O)N[C@@H](CCCCN)C(=O)N[C@@H](CS)C(=O)N[C@@H](CCCCN)C(=O)N[C@H](C(=O)N[C@H](C(=O)N[C@@H](Cc1c[nH]cn1)C(=O)N[C@@H](CC(=O)O)C(=O)N[C@@H](CS)C(=O)N1CCC[C@H]1C(=O)N[C@@H](CCCCN)C(=O)O)C(C)C)[C@@H](C)O` [NCR094.1] (H-YLKCKTVHDCPK-OH; N-terminus and C-terminus assumed): in the data set with human erythrocytes, the hemolysis % is on record as 49.38%.

In the data set with human erythrocytes, `CC[C@H](C)[C@H](NC(=O)[C@H](CCCCN)NC(=O)[C@@H](NC(=O)[C@H](C)NC(=O)[C@H](CCCNC(=N)N)NC(=O)[C@H](CS)NC(=O)[C@H](Cc1ccc(O)cc1)NC(=O)[C@H](CC(N)=O)NC(=O)CNC(=O)[C@@H](NC(=O)[C@H](CS)NC(=O)[C@H](CCCNC(=N)N)NC(=O)[C@H](Cc1ccc(O)cc1)NC(=O)[C@@H](NC(=O)[C@@H](NC(=O)[C@@H](N)CCC(N)=O)C(C)C)C(C)C)C(C)C)C(C)C)C(=O)N[C@@H](CCCNC(=N)N)C(=O)N[C@@H](CCCNC(=N)N)C(=O)N[C@@H](Cc1c[nH]c2ccccc12)C(=O)N[C@@H](CC(N)=O)C(=O)N[C@@H](CC(C)C)C(=O)NCC(=O)O` [NCR094.2] (H-QVVYRCVGNYCRAVKIRRWNLG-OH; N-terminus and C-terminus assumed) came in with a hemolysis % of 8.99%.

Consider `CC[C@H](C)[C@H](NC(=O)[C@H](CCCCN)NC(=O)[C@@H](NC(=O)[C@H](C)NC(=O)[C@H](CCCNC(=N)N)NC(=O)[C@H](CS)NC(=O)[C@H](Cc1ccc(O)cc1)NC(=O)[C@H](CC(N)=O)NC(=O)CNC(=O)[C@@H](NC(=O)[C@H](CS)NC(=O)[C@H](CCCNC(=N)N)NC(=O)[C@H](Cc1ccc(O)cc1)NC(=O)[C@@H](NC(=O)[C@@H](NC(=O)[C@H](CCC(N)=O)NC(=O)[C@H](CO)NC(=O)[C@H](CCCCN)NC(=O)[C@@H]1CCCN1C(=O)[C@H](CS)NC(=O)[C@H](CC(=O)O)NC(=O)[C@H](Cc1c[nH]cn1)NC(=O)[C@@H](NC(=O)[C@@H](NC(=O)[C@H](CCCCN)NC(=O)[C@H](CS)NC(=O)[C@H](CCCCN)NC(=O)[C@H](CC(C)C)NC(=O)[C@@H](N)Cc1ccc(O)cc1)[C@@H](C)O)C(C)C)C(C)C)C(C)C)C(C)C)C(C)C)C(=O)N[C@@H](CCCNC(=N)N)C(=O)N[C@@H](CCCNC(=N)N)C(=O)N[C@@H](Cc1c[nH]c2ccccc12)C(=O)N[C@@H](CC(N)=O)C(=O)N[C@@H](CC(C)C)C(=O)NCC(=O)O` [NCR094] (H-YLKCKTVHDCPKSQVVYRCVGNYCRAVKIRRWNLG-OH; N-terminus and C-terminus assumed), for which, in the data set with K. pneumoniae ATCC700603 [1] (ATCC700603), the “minimum inhibitory concentration (MIC)” value came out at 12.5 µM (≈ 52 µg/mL). Moreover, in the data set with K. pneumoniae ATCC700603 [1] (ATCC700603, 18 h), the “minimum bactericidal / killing concentration (MBC), complete killing” value turned out to be 25 µM. For the same molecule, the hemolysis % with human erythrocytes was 15.41%.

In the data set on human erythrocytes, `CC[C@H](C)[C@H](NC(=O)[C@H](CCSC)NC(=O)CNC(=O)[C@H](Cc1ccccc1)NC(=O)[C@H](CCC(=O)O)NC(=O)[C@H](CS)NC(=O)[C@@H](N)CCSC)C(=O)N[C@@H](CCCNC(=N)N)C(=O)N[C@@H](CCCNC(=N)N)C(=O)N[C@@H](CS)C(=O)O` [NCR992.1] (H-MCEFGMIRRC-OH; N-terminus and C-terminus assumed) yielded a hemolysis % of 63.67%.

`CC[C@H](C)[C@H](N)C(=O)N[C@@H](CO)C(=O)N[C@@H](Cc1ccc(O)cc1)C(=O)N[C@@H](CCCCN)C(=O)N[C@@H](CS)C(=O)N[C@@H](CCC(N)=O)C(=O)N[C@@H](CS)C(=O)N[C@@H](Cc1c[nH]cn1)C(=O)N[C@@H](CCC(=O)O)C(=O)N[C@@H](C)C(=O)N[C@@H](Cc1ccc(O)cc1)C(=O)O` [NCR992.2] (H-ISYKCQCHEAY-OH; N-terminus and C-terminus assumed) registered a hemolysis % in the data set with human erythrocytes of 66.77%.

For “MCWPSFKPRCSNGWCVCDKIMP [NCR888, wild-type nodule-specific cysteine-rich peptide of Medicago truncatula, 22 residues, chemically synthesized]”, in the data set on MRSA ATCC29213, the “inhibition or killing of MRSA (in words)” value is recorded as “did not inhibit or kill”. In the data set with K. pneumoniae ATCC700603 [1] (tested 50, 25, 12.5, 6.25, 3.125 µM, post-18 hrs of treatment), the “inhibition or killing of K. pneumoniae (in words)” value is “did not inhibit or kill”.

With MSEFGMIRRSISYKSQSHEAY [NCR992.3], the hemolysis % with human erythrocytes is reported as 93.34%.

Regarding “YLKSKTVHDSPKSQVVYRSVGNYCRAVKIRRWNLG [NCR094.3]”, in the data set with K. pneumoniae ATCC700603 [2], the “Killing% of K. pneumoniae ex vivo” value is “relatively similar killing activity”. In addition, in the data set on human erythrocytes, the hemolysis % was 0.69%.

Values taken from article PMC10845954, “Novel antimicrobial peptides identified in legume plant, Medicago truncatula” (Microbiology Spectrum, 2024).
